In patent US12122763B2, “Substituted piperidines for androgen receptor degradation” (UBIX THERAPEUTICS, INC., priority 2020, dated 2024):

Biological target: T1, Androgen Receptor (AR) protein (Homo sapiens, UniProt P10275, T878A)
T1 construct: endogenous in cells; host or cells: LNCaP
Experiment: Androgen Receptor (AR) protein degradation assay in LNCaP cells, western blotting
Type: cell-based
Details: 20 h; for inhibition at 0.01 µM: 0.01 μM compound; for inhibition at 0.1 µM: 0.1 μM compound; for inhibition at 1 µM: 1 μM compound
Outline: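 LNCaP prostate cancer cells were cultured 3 days, then treated with compound for 20 h. Lysates in 1% SDS buffer were normalised by BCA, and 8 μg protein was run on 4–12% Bis-Tris gels. AR was immunoblotted with chemiluminescence, using GAPDH/β-actin as loading controls.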

T1 sequence (P10275 whole entry T878A): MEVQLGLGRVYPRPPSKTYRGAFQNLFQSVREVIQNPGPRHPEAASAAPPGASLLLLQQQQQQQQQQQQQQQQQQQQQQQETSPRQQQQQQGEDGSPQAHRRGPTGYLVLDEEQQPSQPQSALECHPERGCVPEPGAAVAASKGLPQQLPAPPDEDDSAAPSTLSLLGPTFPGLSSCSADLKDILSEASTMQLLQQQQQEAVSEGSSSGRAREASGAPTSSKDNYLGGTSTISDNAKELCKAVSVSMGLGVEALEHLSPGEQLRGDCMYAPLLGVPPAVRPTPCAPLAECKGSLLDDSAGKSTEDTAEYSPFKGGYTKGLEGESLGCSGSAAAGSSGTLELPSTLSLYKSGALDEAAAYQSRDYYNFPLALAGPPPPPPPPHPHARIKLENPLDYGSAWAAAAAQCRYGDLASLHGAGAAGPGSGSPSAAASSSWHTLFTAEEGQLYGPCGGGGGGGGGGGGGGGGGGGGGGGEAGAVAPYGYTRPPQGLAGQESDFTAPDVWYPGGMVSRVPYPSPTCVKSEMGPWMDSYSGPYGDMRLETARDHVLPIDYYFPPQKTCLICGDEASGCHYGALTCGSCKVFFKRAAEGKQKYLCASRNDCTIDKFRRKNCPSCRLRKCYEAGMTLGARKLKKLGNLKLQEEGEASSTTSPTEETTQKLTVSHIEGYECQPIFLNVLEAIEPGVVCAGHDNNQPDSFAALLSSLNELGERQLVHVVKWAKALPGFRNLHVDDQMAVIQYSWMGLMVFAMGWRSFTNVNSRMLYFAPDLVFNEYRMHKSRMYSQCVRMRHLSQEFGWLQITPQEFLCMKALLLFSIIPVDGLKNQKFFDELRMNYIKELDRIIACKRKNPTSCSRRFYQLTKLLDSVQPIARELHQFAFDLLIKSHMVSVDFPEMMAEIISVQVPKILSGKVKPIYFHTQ
T1 sequence (Q96SW2 whole entry partner): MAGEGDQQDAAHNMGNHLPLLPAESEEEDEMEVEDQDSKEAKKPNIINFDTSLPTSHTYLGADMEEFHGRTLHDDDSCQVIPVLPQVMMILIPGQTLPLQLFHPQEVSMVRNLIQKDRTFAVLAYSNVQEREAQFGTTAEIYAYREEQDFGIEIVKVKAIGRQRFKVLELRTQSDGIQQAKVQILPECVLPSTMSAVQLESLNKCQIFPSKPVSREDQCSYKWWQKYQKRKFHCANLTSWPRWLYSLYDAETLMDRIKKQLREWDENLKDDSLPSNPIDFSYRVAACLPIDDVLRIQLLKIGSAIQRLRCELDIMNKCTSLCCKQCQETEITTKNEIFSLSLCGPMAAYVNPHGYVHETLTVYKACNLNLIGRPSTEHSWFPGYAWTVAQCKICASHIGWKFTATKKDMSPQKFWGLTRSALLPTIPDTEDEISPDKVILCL

Row | SMILES | inhibition at 0.01 µM [%] | inhibition at 0.1 µM [%] | inhibition at 1 µM [%]
1 | N#Cc1ccc(N2CCC(C(=O)Nc3ccc(N4CCC(CCN5CCN(c6ccc7c(n6)CN(C6CCC(=O)NC6=O)C7=O)CC5)CC4)cn3)CC2)cc1C(F)(F)F (stereo not drawn) [Example 92, 1-(4-cyano-3-(trifluoromethyl)phenyl)-N-(5-(4-(2-(4-(6-(2,6-dioxopiperidin-3-yl)-5-oxo-6,7-dihydro-5H-pyrrolo[3,4-b]pyridin-2-yl)piperazin-1-yl)ethyl)piperidin-1-yl)pyridin-2-yl)piperidine-4-carboxamide] | 53 | 67 | 96
2 | N#Cc1ccc(N2CCC(C(=O)Nc3ccc(N4CCC(CCN5CCN(c6cccc7c6C(=O)N(C6CCC(=O)NC6=O)C7=O)CC5)CC4)cn3)CC2)cc1C(F)(F)F (stereo not drawn) [Example 93, 1-(4-cyano-3-(trifluoromethyl)phenyl)-N-(5-(4-(2-(4-(2-(2,6-dioxopiperidin-3-yl)-1,3-dioxoisoindolin-4-yl)piperazin-1-yl)ethyl)piperidin-1-yl)pyridin-2-yl)piperidine-4-carboxamide] | -11 | 55 | 68
3 | N#Cc1ccc(N2CCC(C(=O)Nc3ccc(N4CCC(CCN5CC6(CCN(c7ccc8c(c7)C(=O)N(C7CCC(=O)NC7=O)C8=O)CC6)C5)CC4)cn3)CC2)cc1C(F)(F)F (stereo not drawn) [Example 94, 1-(4-cyano-3-(trifluoromethyl)phenyl)-N-(5-(4-(2-(7-(2-(2,6-dioxopiperidin-3-yl)-1,3-dioxoisoindolin-5-yl)-2,7-diazaspiro[3.5]nonan-2-yl)ethyl)piperidin-1-yl)pyridin-2-yl)piperidine-4-carboxamide] | 75 | 98 | 98
4 | N#Cc1ccc(N2CCC(C(=O)Nc3ccc(N4CCC(CCN5CCC6(CC5)CN(c5ccc7c(c5)C(=O)N(C5CCC(=O)NC5=O)C7=O)C6)CC4)cn3)CC2)cc1C(F)(F)F (stereo not drawn) [Example 95, 1-(4-cyano-3-(trifluoromethyl)phenyl)-N-(5-(4-(2-(2-(2-(2,6-dioxopiperidin-3-yl)-1,3-dioxoisoindolin-5-yl)-2,7-diazaspiro[3.5]nonan-7-yl)ethyl)piperidin-1-yl)pyridin-2-yl)piperidine-4-carboxamide] | 62 | 96 | 97
5 | N#Cc1ccc(N2CCC(C(=O)Nc3ccc(N4CCC(CCN5CCC6(CC5)CN(c5ccc7c(n5)CN(C5CCC(=O)NC5=O)C7=O)C6)CC4)cn3)CC2)cc1C(F)(F)F (stereo not drawn) [Example 96, 1-(4-cyano-3-(trifluoromethyl)phenyl)-N-(5-(4-(2-(2-(6-(2,6-dioxopiperidin-3-yl)-5-oxo-6,7-dihydro-5H-pyrrolo[3,4-b]pyridin-2-yl)-2,7-diazaspiro[3.5]nonan-7-yl)ethyl)piperidin-1-yl)pyridin-2-yl)piperidine-4-carboxamide] | 71 | 93 | 91
6 | N#Cc1ccc(N2CCC(C(=O)Nc3ccc(N4CCC(CCN5CC(N6CCN(c7ccc8c(c7)C(=O)N(C7CCC(=O)NC7=O)C8=O)CC6)C5)CC4)cn3)CC2)cc1C(F)(F)F (stereo not drawn) [Example 97, 1-(4-cyano-3-(trifluoromethyl)phenyl)-N-(5-(4-(2-(3-(4-(2-(2,6-dioxopiperidin-3-yl)-1,3-dioxoisoindolin-5-yl)piperazin-1-yl)azetidin-1-yl)ethyl)piperidin-1-yl)pyridin-2-yl)piperidine-4-carboxamide] | 39 | 93 | 96
7 | N#Cc1ccc(N2CCC(C(=O)Nc3ccc(N4CCC(CCN5CC(N6CCN(c7ccc8c(n7)CN(C7CCC(=O)NC7=O)C8=O)CC6)C5)CC4)cn3)CC2)cc1C(F)(F)F (stereo not drawn) [Example 98, 1-(4-cyano-3-(trifluoromethyl)phenyl)-N-(5-(4-(2-(3-(4-(6-(2,6-dioxopiperidin-3-yl)-5-oxo-6,7-dihydro-5H-pyrrolo[3,4-b]pyridin-2-yl)piperazin-1-yl)azetidin-1-yl)ethyl)piperidin-1-yl)pyridin-2-yl)piperidine-4-carboxamide] | 48 | 89 | 76
